In patent publication US7825151B2, “Hexahydro-cyclooctyl pyrazole cannabinoid modulators” (priority 2005, dated 2010):
“And” between values parts separate entries of the source, which are not always exact repeats. Identical values can stand only once.

Assays:
[1] = molecular target: T1, human CB1 receptor (Homo sapiens, UniProt P21554); assay: Binding assay for CB1 ([3H]-CP-55,940 displacement, SK-N-MC membranes); settings: for inhibition at 10 µM: test concentration 10 μM (footnote 1), read-out: CB1 receptor binding percent inhibition
T1 construct: expressed in transfected cells; host or cells: SK-N-MC cells, stably transfected with pcDNA3 CB-1 (human)
Description: (§1) The human CB1 and CB2 receptors were stably expressed in SK-N-MC cells transfected with pcDNA3 CB-1 (human) or pcDNA3 CB-2 (human). The cells were grown in T-180 cell culture flasks under standard cell culture conditions at 37° C. in a 5% CO2 atmosphere. The cells were harvested by trysinization and homogenized in a homogenization buffer (10 mM Tris, 0.2 mM MgCl2, 5 mM KCl, with protease inhibitors aprotinin, leupeptin, pepstatin A and bacitracin) and centrifuged (2000 g). The supernatant was then centrifuged in 2M sucrose (31,300 g) to produce a semi-purified membrane pellet. The pellet was resuspended in homogenization and stored at −80° C.
(§2) On the day of the assay, the pellet was thawed on ice and diluted in assay buffer (50 mM Tris-HCl, 5 mM MgCl2, 2.5 mM EDTA, 0.5 mg/mL fatty acid free bovine serum albumin, pH 7.5). The diluted membrane pellet was added with buffer, either a test compound or vehicle standard and the radioligand [H]^3+-CP-55,940 (0.2 nM) to the wells of a 96-well polypropylene plate. Non-specific binding was measured in wells containing WIN 55,212 (10 uM). The plate was covered and incubated for 90 minutes at 30° C. The contents were then aspirated onto a Packard Unifilter GF/C filter bottom plate prewet with 0.5% polyethyleneimine. The wells of the polypropylene plate were rinsed and aspirated seven times with a 0.9% saline-0.5% Tween 20 solution. The Unifilter plate was dried, scintillation cocktail was added to each well and the counts representing binding were quantitated in a TopCount scintillation counter.
(§3) For compounds tested, an IC50 binding value was obtained from percent inhibition studies in which various test concentrations were used. The binding value was calculated by linear regression.
(§4) For compounds without an IC50 binding value, the percent inhibition (%) was obtained at a test concentration of ^(1)10 μM, ^(2)1 μM, ^(3)0.2 μM, ^(4)0.003 μM, ^(5) represents an average value.

[2] = molecular target: T2, CB2 receptor (Homo sapiens, UniProt P34972); assay: Binding assay for CB2 ([3H]-CP-55,940 displacement, SK-N-MC membranes); settings: Cannabinoid CB2 Receptor Binding IC50, radioligand CP-55,940 0.2 nM; SK-N-MC membranes
T2 construct: expressed in transfected cells; host or cells: SK-N-MC cells, stably transfected with pcDNA3 CB-2 (human)
Description: as §1, §2, §3, §4

[3] = molecular target: T1, human CB1 receptor; assay: Functional cell-based CRE β-gal assay, CB1 (adenylate cyclase activity); settings: single test concentration 10 μM (footnote 1)
Source text: (§5) The CB1 and CB2 receptors are G-protein coupled receptors (GPCR), which influence cell function via the Gi-protein. These receptors modulate the activity of intracellular adenylate cyclase, which in turn produces the intracellular signal messenger cyclic-AMP (cAMP).
(§6) At baseline, or during non-ligand bound conditions, these receptors are constitutively active and tonically suppress adenylate cyclase activity. The binding of an agonist causes further receptor activation and produces additional suppression of adenylate cyclase activity. The binding of an inverse agonist inhibits the constitutive activity of the receptors and results in an increase in adenylate cyclase activity.
(§7) By monitoring intracellular adenylate cyclase activity, the ability of compounds to act as agonists or inverse agonists can be determined.
(§8) Test compounds were evaluated in SK-N-MC cells which, using standard transfection procedures, were stably transfected with human cDNA for pcDNA3-CRE β-gal and pcDNA3 CB1 receptor (human) or pcDNA3 CB2 receptor (human). By expressing CRE β-gal, the cells produced β-galactosidase in response to CRE promoter activation by cAMP. Cells expressing CRE β-gal and either the human CB1 or CB2 receptor will produce less β-galactosidase when treated with a CB1/CB2 agonist and will produce more β-galactosidase when treated with a CB1/CB2 inverse agonist.
(§9) The cells were grown in 96-well plates under standard cell culture conditions at 37° C. in a 5% CO2 atmosphere. After 3 days, the media was removed and a test compound in media (wherein the media was supplemented with 2 mM L-glutamine, […] sodium pyruvate, 0.1% low fatty acid FBS (fetal bovine serum) and antibiotics) was added to the cell. The plates were incubated for 30 minutes at 37° C. and the plate cells were then treated with forskolin over a 4-6 hour period, then washed and lysed. The β-galactosidase activity was quantitated using commercially available kit reagents (Promega Corp. Madison, Wis.) and a Vmax Plate Reader (Molecular Devices, Inc).
(§10) The change in β-galactosidase activity was determined by setting a vehicle treated cell's activity value at 100% and expressing the β-galactosidase activity measured in a corresponding compound treated cell as a percent of the vehicle treated cell activity.
The EC50 value for functional activity for compounds tested was calculated by linear regression and was obtained from studies in which varying compound concentrations were used. Data provided for certain compounds is represented by percent change (%) in functional activity at a single test concentration: ^(1)10 μM and ^(2)1 μM.

[4] = molecular target: T2, CB2 receptor; assay: Functional cell-based CRE β-gal assay, CB2 (adenylate cyclase activity)
Source text: as §5, §6, §7, §8, §9
For cells expressing CRE β-gal and the CB2 receptor, CB2 agonists reduced β-galactosidase activity in a dose-dependent manner and CB2 inverse agonists increase β-galactosidase activity in a dose-dependent manner.
as §10
The EC50 value for functional activity for compounds tested was calculated by linear regression and was obtained from studies in which varying compound concentrations were used.
The value of 29% for Compound 5 represents change in functional activity and was obtained from a study in which one compound concentration was used.

[5] = molecular target: T2, CB2 receptor; assay: Modified functional cell-based assay (Beta-Glo luminescence), CB2 agonist
Description: Additional functional activity studies were performed with minor modifications. Beta galactosidase activity was quantified using the luminescent Beta-Glo Assay System (Promega Corp. Madison, Wis.) and an Orion Microplate Luminometer (Berthold Detection Systems, Oak Ridge, Tenn.). The EC50 values were calculated using GraphPad Prism and a four parameter logistic equation.

T1 sequence (P21554 whole entry): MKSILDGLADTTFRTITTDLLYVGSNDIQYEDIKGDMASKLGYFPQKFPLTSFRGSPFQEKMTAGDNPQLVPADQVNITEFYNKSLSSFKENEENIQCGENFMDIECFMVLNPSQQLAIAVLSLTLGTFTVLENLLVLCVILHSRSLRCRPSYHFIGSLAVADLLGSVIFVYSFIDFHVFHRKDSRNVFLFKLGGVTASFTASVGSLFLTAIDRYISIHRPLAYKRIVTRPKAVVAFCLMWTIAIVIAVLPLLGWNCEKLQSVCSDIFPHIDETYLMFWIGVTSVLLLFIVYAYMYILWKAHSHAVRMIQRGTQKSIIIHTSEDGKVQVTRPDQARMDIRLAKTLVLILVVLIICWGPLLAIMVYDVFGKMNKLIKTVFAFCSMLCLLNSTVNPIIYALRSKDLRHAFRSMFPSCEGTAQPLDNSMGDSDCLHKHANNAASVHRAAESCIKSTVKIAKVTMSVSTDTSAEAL
T2 sequence (P34972 whole entry): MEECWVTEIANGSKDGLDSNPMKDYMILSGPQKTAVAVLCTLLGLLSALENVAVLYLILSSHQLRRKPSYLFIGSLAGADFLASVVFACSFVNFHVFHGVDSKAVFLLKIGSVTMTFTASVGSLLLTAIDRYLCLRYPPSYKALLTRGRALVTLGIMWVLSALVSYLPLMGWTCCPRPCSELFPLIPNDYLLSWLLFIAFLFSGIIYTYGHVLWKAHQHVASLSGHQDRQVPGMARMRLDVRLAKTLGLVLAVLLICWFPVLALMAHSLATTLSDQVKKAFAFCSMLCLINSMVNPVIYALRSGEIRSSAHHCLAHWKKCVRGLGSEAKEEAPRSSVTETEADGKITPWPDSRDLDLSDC

Compound	inhibition at 10 µM [1] [%]	IC50 [2]	CB1 receptor percent change in functional activity [3]	CB2 receptor change in functional activity ([4]; one compound concentration) [%]	IC50 ([1]; Cannabinoid CB1 Receptor Binding IC50, radioligand CP-55,940 0.2 nM, SK-N-MC membranes) [nM]	EC50 [4] [nM]	EC50 [5] [nM]
CC(NC(=O)c1nn(C2CCCC2)c2c1CCCCCC2)C12CC3CC(CC(C3)C1)C2 (stereo not shown) [Cpd 5, 1-cyclopentyl-4,5,6,7,8,9-hexahydro-1H-cyclooctapyrazole-3-carboxylic acid (1-adamantan-1-yl-ethyl)-amide]	47	100 nM	^(1)10%	29	–	–	–
CC12CCC(C1)C(C)(C)C2NC(=O)c1nn(C2CCCCC2)c2c1CCCCCC2 (stereo not shown) [Cpd 1, 1-cyclohexyl-4,5,6,7,8,9-hexahydro-1H-cyclooctapyrazole-3-carboxylic acid (1,3,3-trimethyl-bicyclo[2.2.1]hept-2-yl)-amide]	–	0.1 nM and 0.09 nM	^(1)−78%	–	40	1.6	–
O=C(N[C@@H](CO)c1ccccc1)c1n[nH]c2c1CCCCC/C2=C\c1cccc(Cl)c1 [Cpd 31, (9E)-(3-chloro-benzylidene)-4,5,6,7,8,9-hexahydro-1H-cyclooctapyrazole-3-carboxylic acid [(1R)-2-hydroxy-1-phenyl-ethyl]-amide]	–	–	–	–	–	–	18
O=C(NCC12CC3CC(CC(C3)C1)C2)c1nn(C2CCCC2)c2c1CCCCCC2 [Cpd 3, 1-cyclopentyl-4,5,6,7,8,9-hexahydro-1H-cyclooctapyrazole-3-carboxylic acid (adamantan-1-ylmethyl)-amide]	45	20 nM	^(1)−6%	–	–	200	–
